Measured values published in US10246429B2, “Vinyl fluoride cyclopropyl fused thiazin-2-amine compounds as beta-secretase inhibitors and methods of use” (AMGEN INC., priority 2015, dated 2019).

Experiments:
Cathepsin D (CatD) = Cathepsin D (CatD) (Homo sapiens (Human), UniProt P07339); test: CatD assay; format: biochemical; settings: read-out: IC50 IP (μM) CatD
BACE1 [1] = molecular target: T1, BACE1 (Homo sapiens (Human), UniProt P56817); test: In vitro enzymatic BACE1 FRET assay; format: biochemical; settings: read-out: IC50 IP (μM) BACE1 Enzyme
Target sequence in this assay (P56817 46-501): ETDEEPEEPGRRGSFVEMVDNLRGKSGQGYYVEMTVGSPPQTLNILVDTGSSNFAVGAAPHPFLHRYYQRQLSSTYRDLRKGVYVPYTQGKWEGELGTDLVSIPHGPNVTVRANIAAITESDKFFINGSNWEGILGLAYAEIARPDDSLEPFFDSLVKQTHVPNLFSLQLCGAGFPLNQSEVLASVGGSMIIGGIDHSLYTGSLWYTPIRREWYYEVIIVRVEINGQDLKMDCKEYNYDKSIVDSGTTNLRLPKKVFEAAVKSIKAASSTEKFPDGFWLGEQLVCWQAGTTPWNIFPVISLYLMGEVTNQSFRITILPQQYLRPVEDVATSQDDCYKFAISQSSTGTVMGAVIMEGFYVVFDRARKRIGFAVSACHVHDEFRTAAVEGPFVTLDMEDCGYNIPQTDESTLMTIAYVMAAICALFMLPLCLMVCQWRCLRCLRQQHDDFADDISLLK
Description: (§1) In Vitro Enzymatic BACE1 and BACE2 FRET (Fluorescence Resonance Energy Transfer) Assays (Enzyme Assay Data in Table 1)

BACE1 [2] = molecular target: T1, BACE1; test: BACE1 cell assay; format: cell-based
Target sequence in this assay (P56817 46-501, species assumed): as the sequence (P56817 46-501) above

BACE2 = BACE2 (Homo sapiens (Human), UniProt Q9Y5Z0); test: In vitro enzymatic BACE2 FRET assay; format: biochemical; settings: read-out: IC50 IP (μM) BACE2 Enzyme
Chain of BACE2 (Q9Y5Z0 63-518): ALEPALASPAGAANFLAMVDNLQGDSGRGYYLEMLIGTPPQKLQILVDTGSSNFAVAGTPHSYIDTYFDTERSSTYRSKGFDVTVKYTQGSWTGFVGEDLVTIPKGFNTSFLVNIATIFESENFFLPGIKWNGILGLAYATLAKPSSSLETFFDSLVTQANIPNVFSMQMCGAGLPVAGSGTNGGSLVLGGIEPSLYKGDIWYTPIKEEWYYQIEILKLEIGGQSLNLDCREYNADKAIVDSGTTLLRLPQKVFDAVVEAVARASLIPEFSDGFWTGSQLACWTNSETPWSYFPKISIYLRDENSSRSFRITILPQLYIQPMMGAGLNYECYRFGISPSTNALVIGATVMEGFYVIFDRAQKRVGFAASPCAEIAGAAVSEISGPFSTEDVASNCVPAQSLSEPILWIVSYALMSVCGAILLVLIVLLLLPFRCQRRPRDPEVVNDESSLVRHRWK
Description: as §1

[3] = read-out: IC50 IP (μM) BACE1 Cell

Chain of Cathepsin D (CatD) (P07339 65-412, species assumed): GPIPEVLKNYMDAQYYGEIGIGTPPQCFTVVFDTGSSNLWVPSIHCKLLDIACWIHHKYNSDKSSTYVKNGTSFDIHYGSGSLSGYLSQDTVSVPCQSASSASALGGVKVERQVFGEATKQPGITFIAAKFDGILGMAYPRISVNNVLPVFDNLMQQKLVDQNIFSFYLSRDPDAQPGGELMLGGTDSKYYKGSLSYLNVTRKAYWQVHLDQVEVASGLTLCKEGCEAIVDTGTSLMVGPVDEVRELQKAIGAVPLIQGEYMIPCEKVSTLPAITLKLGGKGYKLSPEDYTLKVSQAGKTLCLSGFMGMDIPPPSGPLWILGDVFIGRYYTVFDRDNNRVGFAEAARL

C#CCOc1cnc(/C(F)=C/c2cnc(F)c([C@@]3(C)N=C(N)S[C@@]4(C(=O)N5CC[C@@H](F)C5)C[C@H]43)c2)cn1 [Example 295, ((1S,5S,6S)-3-amino-5-(2-fluoro-5-((Z)-2-fluoro-2-(5-(prop-2-yn-1-yloxy)pyrazin-2-yl)vinyl)pyridin-3-yl)-5-methyl-2-thia-4-azabicyclo[4.1.0]hept-3-en-1-yl)((R)-3-fluoropyrrolidin-1-yl)methanone]
IC50 (Cathepsin D (CatD)): 58.6 µM | IC50 (BACE1 [1]): 0.0008 µM | IC50 (BACE1 [2]; [3]): 0.0004 µM | IC50 (BACE2): 0.078 µM

C[C@]1(c2cc(/C=C(\F)c3ccc(C#N)cn3)ccc2F)N=C(N)S[C@@]2(C(=O)N3CCC(F)CC3)C[C@H]21 [Example 326, 6-((Z)-2-(3-((1S,5S,6S)-3-amino-1-(4-fluoropiperidine-1-carbonyl)-5-methyl-2-thia-4-azabicyclo[4.1.0]hept-3-en-5-yl)-4-fluorophenyl)-1-fluorovinyl)nicotinonitrile]
IC50 (Cathepsin D (CatD)): 648 µM | IC50 (BACE1 [1]): 0.0016 µM | IC50 (BACE1 [2]; [3]): 0.0022 µM | IC50 (BACE2): 0.045 µM

COCCOc1cnc(/C(F)=C/c2ccc(F)c([C@@]3(C)N=C(N)S[C@@]4(C(=O)N(C)C)C[C@H]43)c2)cn1 [Example 210, (1S,5S,6S)-3-amino-5-(2-fluoro-5-((Z)-2-fluoro-2-(5-(2-methoxyethoxy)pyrazin-2-yl)vinyl)phenyl)-N,N,5-trimethyl-2-thia-4-azabicyclo[4.1.0]hept-3-ene-1-carboxamide]
IC50 (Cathepsin D (CatD)): 159 µM | IC50 (BACE1 [1]): 0.011 µM | IC50 (BACE1 [2]): 0.007 µM | IC50 (BACE2): 0.072 µM

CNC(=O)[C@]12C[C@H]1[C@@](C)(c1cc(/C=C(/F)c3ccc(Br)cn3)ccc1F)N=C(N)S2 [Example 356, (1S,5S,6S)-3-amino-5-(5-((E)-2-(5-bromopyridin-2-yl)-2-fluorovinyl)-2-fluorophenyl)-N,5-dimethyl-2-thia-4-azabicyclo[4.1.0]hept-3-ene-1-carboxamide]
IC50 (Cathepsin D (CatD)): 64 µM | IC50 (BACE1 [1]): 0.023 µM | IC50 (BACE1 [2]; [3]): 0.154 µM | IC50 (BACE2): 0.137 µM

C[C@]1(c2cc(/C=C(\F)c3ccc(C#N)cn3)ccc2F)N=C(N)S[C@@]2(C(=O)N3CCOCC34CCC4)C[C@H]21 [Example 331, 6-((Z)-2-(3-((1S,5S,6S)-3-amino-5-methyl-1-(8-oxa-5-azaspiro[3.5]nonane-5-carbonyl)-2-thia-4-azabicyclo[4.1.0]hept-3-en-5-yl)-4-fluorophenyl)-1-fluorovinyl)nicotinonitrile]
IC50 (Cathepsin D (CatD)): 8.9 µM | IC50 (BACE1 [1]): 0.0013 µM | IC50 (BACE1 [2]; [3]): 0.0032 µM | IC50 (BACE2): 0.061 µM

CNC(=O)[C@]12C[C@H]1[C@@](C)(c1cc(/C=C(\F)c3cnc(C#C[Si](C)(C)C)cn3)ccc1F)N=C(N)S2 [Example 166, (1S,5S,6S)-3-amino-5-(2-fluoro-5-((Z)-2-fluoro-2-(5-((trimethylsilyl)ethynyl)pyrazin-2-yl)vinyl)phenyl)-N,5-dimethyl-2-thia-4-azabicyclo[4.1.0]hept-3-ene-1-carboxamide]
IC50 (Cathepsin D (CatD)): 146 µM | IC50 (BACE1 [1]): 0.0171 µM | IC50 (BACE1 [2]; [3]): 0.185 µM | IC50 (BACE2): 1.72 µM

CN(C)C(=O)[C@]12C[C@H]1[C@@](C)(c1cc(/C=C(\F)I)ccc1F)N=C(N)S2 [Example 206, (1S,5S,6S)-3-amino-5-(2-fluoro-5-((E)-2-fluoro-2-iodovinyl)phenyl)-N,N,5-trimethyl-2-thia-4-azabicyclo[4.1.0]hept-3-ene-1-carboxamide]
IC50 (Cathepsin D (CatD)): 12.2 µM | IC50 (BACE1 [1]): 0.01 µM | IC50 (BACE1 [2]; [3]): 0.093 µM | IC50 (BACE2): 0.008 µM

C#Cc1ccc(/C(F)=C/c2ccc(F)c([C@@]3(C)N=C(N)S[C@@]4(C(=O)N5CCOCC5)C[C@H]43)c2)nc1 [Example 348, ((1S,5S,6S)-3-amino-5-(5-((Z)-2-(5-ethynylpyridin-2-yl)-2-fluorovinyl)-2-fluorophenyl)-5-methyl-2-thia-4-azabicyclo[4.1.0]hept-3-en-1-yl)(morpholino)methanone]
IC50 (Cathepsin D (CatD)): 162 µM | IC50 (BACE1 [1]): 0.007 µM | IC50 (BACE1 [2]; [3]): 0.008 µM | IC50 (BACE2): 0.097 µM
